Measured values reported in patent US20240117405A1, “COLORIMETRIC BIOSENSOR, PREPARATION METHOD THEREOF, AND ANTIBIOTIC SUSCEPTIBILITY TESTING METHOD USING THE SAME” (INHA UNIVERSITY RESEARCH AND BUSINESS FOUNDATION, priority 2022, published 2024).

Test system: methicillin-resistant Staphylococcus Aureus (MRSA)
Assay: Antibiotic susceptibility test using encapsulated colorimetric biosensor
Type: cell-based
Conditions: MRSA 10^6 CFU/mL, 37° C.; for time until color change (blue->red) of the colorimetric biosensor: photographed up to 15 hours
Description: An antibiotic susceptibility test was performed on the colorimetric biosensor in encapsulated form prepared in Example 1, and the results are shown in FIG. 5.
Specifically, an encapsulated colorimetric biosensor was prepared from Example 1 and introduced into wells containing 2 and 4 μg/mL of ampicillin antibiotics (See FIGS. 5B and 5C) and 0.25, 2 and 4 μg/mL of vancomycin antibiotics (See FIGS. 5D, 5E, and 5F). Further, for the antibiotic susceptibility test, methicillin-resistant Staphylococcus Aureus (MRSA) bacteria, which are resistant to ampicillin and susceptible to vancomycin, were injected into each well at an amount of 10^6 CFU/mL. For comparative experiments, wells containing only the colorimetric biosensor and bacteria (See FIG. 5A) and wells containing only the colorimetric biosensor (See FIG. 5G) were also prepared. In order to induce the growth of MRSA and the color change of the biosensor accordingly, they were cultured at a temperature of 37° C., and each well plate was photographed at 0, 5, 6, 7, 9, 12, 13 and 15 hours to compare the color change.

SMILES	time until color change (blue->red) of the colorimetric biosensor (2 μg/mL antibiotic)	time until color change (blue->red) of the colorimetric biosensor (4 μg/mL antibiotic)	susceptibility or resistance of MRSA to the antibiotic as determined by biosensor color change	time until color change (blue->red) of the colorimetric biosensor (0.25 μg/mL antibiotic) [h]	concentration from which MRSA shows susceptibility (no color change) (tested 0.25, 2 and 4 μg/mL) [µg/mL]
CC1(C)S[C@@H]2[C@H](NC(=O)[C@H](N)c3ccccc3)C(=O)N2[C@H]1C(=O)O [ampicillin]	9 h	13 h	resistance	–	–
CN[C@H](CC(C)C)C(=O)N[C@H]1C(=O)N[C@@H](CC(N)=O)C(=O)N[C@H]2C(=O)N[C@H]3C(=O)N[C@H](C(=O)N[C@H](C(=O)O)c4cc(O)cc(O)c4-c4cc3ccc4O)[C@H](O)c3ccc(c(Cl)c3)Oc3cc2cc(c3O[C@@H]2O[C@H](CO)[C@@H](O)[C@H](O)[C@H]2O[C@H]2C[C@](C)(N)[C@H](O)[C@H](C)O2)Oc2ccc(cc2Cl)[C@H]1O [vancomycin]	no color change was observed	no color change was observed	susceptibility	9	2
